Earlier results as cited in patent publication US20260033492A1, “Pest Repellents and Uses Thereof” (priority 2020, published 2026).

Tests used:
acetylcholinesterase = acetylcholinesterase (Homo sapiens, UniProt P22303); conditions: in humans
[1] = in vivo
salamander larvae = conditions: in vivo
insects = conditions: in vivo

acetylcholinesterase, sequence (P22303 32-614): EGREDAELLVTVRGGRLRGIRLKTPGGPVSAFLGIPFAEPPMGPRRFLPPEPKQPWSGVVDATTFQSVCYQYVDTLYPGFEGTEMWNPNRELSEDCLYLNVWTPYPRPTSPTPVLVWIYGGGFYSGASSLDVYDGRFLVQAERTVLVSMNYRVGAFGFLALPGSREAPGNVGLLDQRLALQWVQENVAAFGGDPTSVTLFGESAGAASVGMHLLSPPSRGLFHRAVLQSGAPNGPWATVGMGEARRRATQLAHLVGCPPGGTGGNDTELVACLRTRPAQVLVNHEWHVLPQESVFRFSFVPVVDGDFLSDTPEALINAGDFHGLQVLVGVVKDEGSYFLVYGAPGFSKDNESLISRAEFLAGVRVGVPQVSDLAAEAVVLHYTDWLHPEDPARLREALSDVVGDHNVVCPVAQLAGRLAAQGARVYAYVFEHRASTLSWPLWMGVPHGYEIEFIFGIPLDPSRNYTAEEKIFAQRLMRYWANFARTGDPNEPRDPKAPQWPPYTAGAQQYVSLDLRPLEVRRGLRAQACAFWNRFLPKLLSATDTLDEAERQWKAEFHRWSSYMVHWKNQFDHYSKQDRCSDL

| Structure (SMILES) | inhibition of acetylcholinesterase (acetylcholinesterase) | irritancy / skin reactions [1] | toxicity to salamander larvae (salamander larvae) | effectiveness at repelling insects relative to DEET (insects) |
| --- | --- | --- | --- | --- |
| CCN(CC)C(=O)c1cccc(C)c1 [DEET, N,N-diethyl-meta-toluamide] | inhibit acetylcholinesterase | act as an irritant |  |  |
| CCC(C)OC(=O)N1CCCCC1CCO (stereo not shown) [Icaridin] |  |  | toxic to salamander larvae | as effective as DEET |
